Paper PMC3445516 (PLoS ONE, 2012)
Like-named read-outs stand apart in the source and are kept apart here. Each block holds one compound with its values, some of them ahead of it.

How the values were obtained:
Test in all cases: Ambit kinase profiling, competition binding
STK35 = biological target: T1, STK35 (Homo sapiens, UniProt Q8TDR2)
T1 construct: purchased Ambit Biosciences (KINOMEscan)
Protocol: (§1) Also included in the kinase profile are four isoforms of PKC (δ, ε, η, θ) and eight isoforms of CAMKs (CAMKIα, δ, γ; CAMKIIα, β, δ, γ; CAMK4).
(§2) The global kinase profiling experiment was performed by Ambit Biosciences.

IRAK3 = biological target: T2, IRAK3 (Homo sapiens, UniProt Q9Y616)
T2 construct: purchased Ambit Biosciences (KINOMEscan)
T2 sequence (Q9Y616 1-596): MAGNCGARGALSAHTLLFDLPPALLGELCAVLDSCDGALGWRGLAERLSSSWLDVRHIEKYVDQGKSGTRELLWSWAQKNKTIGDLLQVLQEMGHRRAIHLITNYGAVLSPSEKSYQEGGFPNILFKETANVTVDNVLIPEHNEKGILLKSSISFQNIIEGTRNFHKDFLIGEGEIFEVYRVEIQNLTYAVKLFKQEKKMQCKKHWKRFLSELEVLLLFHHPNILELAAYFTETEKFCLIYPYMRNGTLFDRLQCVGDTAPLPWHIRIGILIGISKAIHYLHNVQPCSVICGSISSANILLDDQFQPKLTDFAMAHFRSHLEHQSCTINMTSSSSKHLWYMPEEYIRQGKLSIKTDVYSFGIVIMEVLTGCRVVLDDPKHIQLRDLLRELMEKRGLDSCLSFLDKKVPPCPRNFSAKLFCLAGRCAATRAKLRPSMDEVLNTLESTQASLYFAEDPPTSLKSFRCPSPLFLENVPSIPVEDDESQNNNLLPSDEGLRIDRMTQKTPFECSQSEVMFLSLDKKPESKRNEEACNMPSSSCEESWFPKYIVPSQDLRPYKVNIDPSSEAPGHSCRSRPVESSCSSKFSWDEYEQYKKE
Protocol: as §1, §2

GSK3B = biological target: T3, GSK3B (Homo sapiens, UniProt P49841)
T3 construct: purchased Ambit Biosciences (KINOMEscan)
Protocol: as §1, §2

MRCKB = biological target: T4, MRCKB (Homo sapiens, UniProt Q9Y5S2)
T4 construct: purchased Ambit Biosciences (KINOMEscan)
Protocol: as §1, §2

ACVRL1 = biological target: T5, ACVRL1 (Homo sapiens, UniProt P37023)
T5 construct: purchased Ambit Biosciences (KINOMEscan)
Protocol: as §1, §2

HPK1 = biological target: T6, HPK1 (Homo sapiens, UniProt Q92918)
T6 construct: purchased Ambit Biosciences (KINOMEscan)
Protocol: as §1, §2

JNK3 = biological target: T7, JNK3 (Homo sapiens, UniProt P53779); conditions: for % Competition: 10 µM
T7 construct: purchased Ambit Biosciences (KINOMEscan)
Protocol: as §1, §2

RIPK2 = biological target: T8, RIPK2 (Homo sapiens, UniProt O43353)
T8 construct: purchased Ambit Biosciences (KINOMEscan)
Protocol: as §1, §2

JNK2 = biological target: T9, JNK2 (Homo sapiens, UniProt P45984); conditions: for % Competition: 10 µM
T9 construct: purchased Ambit Biosciences (KINOMEscan)
Protocol: as §1, §2

CAMKIγ = biological target: T10, CAMKIγ (Homo sapiens, UniProt Q96NX5); conditions: for competition: CAMKIγ, 10 µM
T10 construct: purchased Ambit Biosciences (KINOMEscan)
Protocol: as §1, §2

MUSK = biological target: T11, MUSK (Homo sapiens, UniProt O15146)
T11 construct: purchased Ambit Biosciences (KINOMEscan)
T11 sequence (O15146 24-869): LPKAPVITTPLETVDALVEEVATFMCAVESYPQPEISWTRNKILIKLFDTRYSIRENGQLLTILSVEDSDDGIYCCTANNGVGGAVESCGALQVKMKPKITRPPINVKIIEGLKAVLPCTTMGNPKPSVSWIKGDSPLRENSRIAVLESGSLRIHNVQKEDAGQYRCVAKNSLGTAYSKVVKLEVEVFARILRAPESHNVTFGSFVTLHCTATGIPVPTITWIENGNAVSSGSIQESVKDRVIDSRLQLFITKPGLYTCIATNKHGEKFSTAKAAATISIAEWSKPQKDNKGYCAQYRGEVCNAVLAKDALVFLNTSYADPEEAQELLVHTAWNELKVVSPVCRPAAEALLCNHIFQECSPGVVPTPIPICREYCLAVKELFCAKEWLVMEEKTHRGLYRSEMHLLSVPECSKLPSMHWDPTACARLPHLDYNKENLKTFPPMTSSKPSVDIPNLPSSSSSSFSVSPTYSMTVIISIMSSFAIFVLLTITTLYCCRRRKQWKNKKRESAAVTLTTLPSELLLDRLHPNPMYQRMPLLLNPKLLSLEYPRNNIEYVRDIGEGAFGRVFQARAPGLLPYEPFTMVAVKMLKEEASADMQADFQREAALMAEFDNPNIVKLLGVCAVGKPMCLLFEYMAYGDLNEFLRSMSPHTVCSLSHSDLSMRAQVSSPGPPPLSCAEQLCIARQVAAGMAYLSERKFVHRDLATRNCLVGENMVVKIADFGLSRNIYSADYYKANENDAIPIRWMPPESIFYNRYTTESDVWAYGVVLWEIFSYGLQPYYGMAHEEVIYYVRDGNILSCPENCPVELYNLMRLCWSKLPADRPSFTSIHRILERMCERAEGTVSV
Protocol: as §1, §2

PKAC-beta = biological target: T12, PKAC-beta (Homo sapiens, UniProt P22694)
T12 construct: purchased Ambit Biosciences (KINOMEscan)
Protocol: as §1, §2

T6 sequence (Q92918 whole entry): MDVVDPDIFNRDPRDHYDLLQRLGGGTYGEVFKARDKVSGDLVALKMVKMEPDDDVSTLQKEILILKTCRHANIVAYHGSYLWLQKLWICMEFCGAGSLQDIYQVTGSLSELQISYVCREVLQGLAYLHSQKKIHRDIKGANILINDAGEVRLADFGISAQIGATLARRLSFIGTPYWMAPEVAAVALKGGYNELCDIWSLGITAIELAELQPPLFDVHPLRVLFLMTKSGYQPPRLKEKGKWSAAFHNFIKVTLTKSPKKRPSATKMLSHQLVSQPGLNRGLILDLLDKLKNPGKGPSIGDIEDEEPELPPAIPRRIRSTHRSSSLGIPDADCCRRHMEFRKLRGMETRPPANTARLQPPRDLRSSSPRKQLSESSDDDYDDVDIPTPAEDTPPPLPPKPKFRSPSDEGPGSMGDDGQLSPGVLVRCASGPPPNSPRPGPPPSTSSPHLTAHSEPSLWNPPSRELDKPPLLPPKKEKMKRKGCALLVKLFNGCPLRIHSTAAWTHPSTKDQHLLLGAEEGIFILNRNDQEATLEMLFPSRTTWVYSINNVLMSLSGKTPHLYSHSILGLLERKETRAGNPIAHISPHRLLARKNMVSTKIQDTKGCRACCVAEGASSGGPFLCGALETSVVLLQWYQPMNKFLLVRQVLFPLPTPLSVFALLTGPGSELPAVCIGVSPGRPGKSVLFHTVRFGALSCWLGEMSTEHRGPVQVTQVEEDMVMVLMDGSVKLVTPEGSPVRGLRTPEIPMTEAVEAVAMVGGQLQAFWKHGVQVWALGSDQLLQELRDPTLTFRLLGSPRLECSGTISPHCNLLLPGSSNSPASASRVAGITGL
T7 sequence (P53779 whole entry): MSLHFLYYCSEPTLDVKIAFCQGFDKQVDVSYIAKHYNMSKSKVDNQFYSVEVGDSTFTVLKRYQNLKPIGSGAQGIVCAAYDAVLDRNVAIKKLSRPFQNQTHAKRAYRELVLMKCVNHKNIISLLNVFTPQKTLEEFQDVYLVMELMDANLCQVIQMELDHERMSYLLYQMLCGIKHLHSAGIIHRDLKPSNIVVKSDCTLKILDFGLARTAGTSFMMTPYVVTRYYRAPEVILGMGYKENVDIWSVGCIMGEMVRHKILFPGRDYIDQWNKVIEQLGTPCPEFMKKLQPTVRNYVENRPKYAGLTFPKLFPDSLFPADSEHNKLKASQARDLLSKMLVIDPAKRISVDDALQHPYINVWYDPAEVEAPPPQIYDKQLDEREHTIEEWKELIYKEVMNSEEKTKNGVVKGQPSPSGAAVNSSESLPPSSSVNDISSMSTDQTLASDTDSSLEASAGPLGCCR
T1 sequence (Q8TDR2 whole entry): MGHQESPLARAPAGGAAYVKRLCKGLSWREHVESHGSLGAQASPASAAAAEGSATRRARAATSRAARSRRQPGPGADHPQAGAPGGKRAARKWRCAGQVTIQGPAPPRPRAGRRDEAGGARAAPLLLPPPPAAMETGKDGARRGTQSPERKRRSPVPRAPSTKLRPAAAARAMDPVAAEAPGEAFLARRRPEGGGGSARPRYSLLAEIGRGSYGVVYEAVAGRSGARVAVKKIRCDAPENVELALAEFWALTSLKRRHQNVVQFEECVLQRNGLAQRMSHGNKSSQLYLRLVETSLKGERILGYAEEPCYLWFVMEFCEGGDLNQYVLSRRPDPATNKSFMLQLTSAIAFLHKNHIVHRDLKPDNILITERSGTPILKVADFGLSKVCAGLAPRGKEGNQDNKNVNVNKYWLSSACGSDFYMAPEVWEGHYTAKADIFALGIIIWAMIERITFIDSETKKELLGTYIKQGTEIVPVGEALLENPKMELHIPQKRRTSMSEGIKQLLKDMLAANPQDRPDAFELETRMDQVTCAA
T5 sequence (P37023 22-503): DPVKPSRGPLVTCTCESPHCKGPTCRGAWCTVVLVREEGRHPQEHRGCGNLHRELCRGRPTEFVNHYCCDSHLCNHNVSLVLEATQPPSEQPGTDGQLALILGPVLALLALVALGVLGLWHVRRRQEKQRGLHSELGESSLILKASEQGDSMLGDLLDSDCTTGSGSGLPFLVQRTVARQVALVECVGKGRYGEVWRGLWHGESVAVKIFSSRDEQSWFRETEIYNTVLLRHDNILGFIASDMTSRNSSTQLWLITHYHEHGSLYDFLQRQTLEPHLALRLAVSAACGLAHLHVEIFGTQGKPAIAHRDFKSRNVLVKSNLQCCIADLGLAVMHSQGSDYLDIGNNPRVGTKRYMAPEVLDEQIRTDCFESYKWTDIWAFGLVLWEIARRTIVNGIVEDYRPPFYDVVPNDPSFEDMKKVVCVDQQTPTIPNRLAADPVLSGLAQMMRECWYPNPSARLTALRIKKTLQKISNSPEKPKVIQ
T10 sequence (Q96NX5 whole entry): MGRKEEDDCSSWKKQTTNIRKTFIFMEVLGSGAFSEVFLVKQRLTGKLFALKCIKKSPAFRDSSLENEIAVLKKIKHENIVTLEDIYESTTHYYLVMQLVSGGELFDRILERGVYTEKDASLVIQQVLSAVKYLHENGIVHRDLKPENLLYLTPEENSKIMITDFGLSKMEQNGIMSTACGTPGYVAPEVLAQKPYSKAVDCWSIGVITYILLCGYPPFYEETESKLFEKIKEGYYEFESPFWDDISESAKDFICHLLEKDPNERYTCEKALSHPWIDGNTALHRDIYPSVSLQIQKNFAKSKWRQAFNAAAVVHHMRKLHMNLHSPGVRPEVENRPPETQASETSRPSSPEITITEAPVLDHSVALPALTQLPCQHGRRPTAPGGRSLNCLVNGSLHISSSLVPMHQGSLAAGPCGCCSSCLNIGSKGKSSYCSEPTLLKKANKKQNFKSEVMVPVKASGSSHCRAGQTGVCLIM
T9 sequence (P45984 whole entry): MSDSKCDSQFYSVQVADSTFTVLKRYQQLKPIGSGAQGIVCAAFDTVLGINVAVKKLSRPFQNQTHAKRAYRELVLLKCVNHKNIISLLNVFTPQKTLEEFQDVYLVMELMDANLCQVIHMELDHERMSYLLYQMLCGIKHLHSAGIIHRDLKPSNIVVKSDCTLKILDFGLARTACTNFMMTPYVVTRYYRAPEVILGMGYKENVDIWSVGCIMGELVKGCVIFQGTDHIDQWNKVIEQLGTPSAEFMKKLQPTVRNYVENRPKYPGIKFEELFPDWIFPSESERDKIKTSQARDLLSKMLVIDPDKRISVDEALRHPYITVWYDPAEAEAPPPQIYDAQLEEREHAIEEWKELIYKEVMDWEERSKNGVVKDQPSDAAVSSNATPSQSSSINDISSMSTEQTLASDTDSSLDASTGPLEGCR
T4 sequence (Q9Y5S2 whole entry): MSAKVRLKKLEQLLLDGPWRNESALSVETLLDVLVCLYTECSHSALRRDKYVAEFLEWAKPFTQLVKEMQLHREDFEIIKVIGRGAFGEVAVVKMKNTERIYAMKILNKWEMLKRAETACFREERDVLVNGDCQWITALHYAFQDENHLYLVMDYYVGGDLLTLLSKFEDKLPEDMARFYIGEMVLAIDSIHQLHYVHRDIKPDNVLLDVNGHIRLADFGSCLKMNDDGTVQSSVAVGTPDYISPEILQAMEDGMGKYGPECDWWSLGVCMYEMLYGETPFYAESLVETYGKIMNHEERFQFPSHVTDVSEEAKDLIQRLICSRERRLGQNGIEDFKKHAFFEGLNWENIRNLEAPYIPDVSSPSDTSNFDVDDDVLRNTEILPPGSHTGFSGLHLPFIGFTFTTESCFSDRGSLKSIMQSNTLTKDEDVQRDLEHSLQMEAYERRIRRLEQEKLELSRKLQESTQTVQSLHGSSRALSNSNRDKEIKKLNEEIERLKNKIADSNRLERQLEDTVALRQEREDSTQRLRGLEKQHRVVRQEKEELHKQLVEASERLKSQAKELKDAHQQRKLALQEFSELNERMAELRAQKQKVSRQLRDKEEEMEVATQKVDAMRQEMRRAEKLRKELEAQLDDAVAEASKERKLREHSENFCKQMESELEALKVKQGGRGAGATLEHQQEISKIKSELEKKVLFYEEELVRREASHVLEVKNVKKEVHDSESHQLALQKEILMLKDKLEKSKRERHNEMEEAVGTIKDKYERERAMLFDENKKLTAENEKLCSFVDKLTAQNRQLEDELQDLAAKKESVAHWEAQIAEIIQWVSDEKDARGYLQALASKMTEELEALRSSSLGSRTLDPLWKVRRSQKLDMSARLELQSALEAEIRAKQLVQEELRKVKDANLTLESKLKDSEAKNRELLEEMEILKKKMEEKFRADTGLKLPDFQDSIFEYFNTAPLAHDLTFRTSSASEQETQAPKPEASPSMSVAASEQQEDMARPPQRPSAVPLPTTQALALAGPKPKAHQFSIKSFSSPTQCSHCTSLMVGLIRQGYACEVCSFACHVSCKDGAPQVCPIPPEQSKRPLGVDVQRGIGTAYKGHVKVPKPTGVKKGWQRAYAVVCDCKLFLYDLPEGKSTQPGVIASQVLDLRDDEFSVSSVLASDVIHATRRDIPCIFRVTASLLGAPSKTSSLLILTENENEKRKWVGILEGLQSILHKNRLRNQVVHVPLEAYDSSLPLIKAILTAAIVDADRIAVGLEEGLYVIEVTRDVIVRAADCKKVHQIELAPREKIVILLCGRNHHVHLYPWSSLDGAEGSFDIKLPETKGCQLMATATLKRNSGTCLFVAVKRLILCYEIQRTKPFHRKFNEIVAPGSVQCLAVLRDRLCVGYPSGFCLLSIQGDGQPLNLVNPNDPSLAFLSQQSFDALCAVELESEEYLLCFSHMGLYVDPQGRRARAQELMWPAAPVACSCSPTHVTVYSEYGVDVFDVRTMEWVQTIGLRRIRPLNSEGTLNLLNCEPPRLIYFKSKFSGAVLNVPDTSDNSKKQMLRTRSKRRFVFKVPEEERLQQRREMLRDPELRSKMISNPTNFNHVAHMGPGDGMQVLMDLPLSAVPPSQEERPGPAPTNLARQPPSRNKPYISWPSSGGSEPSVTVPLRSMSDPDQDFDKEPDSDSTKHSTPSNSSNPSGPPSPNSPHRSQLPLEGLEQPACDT

- inhibition at 10 µM (STK35; STK35, compound concentration 10 uM, read-out: Percent Competition): 79%
- inhibition at 10 µM (IRAK3; IRAK3, compound concentration 10 uM, read-out: Percent Competition): 75%
- inhibition at 10 µM (GSK3B; GSK3B, compound concentration 10 uM, read-out: Percent Competition): 96%
- inhibition at 10 µM (MRCKB; MRCKB, compound concentration 10 uM, read-out: Percent Competition): 98%
- inhibition at 10 µM (ACVRL1; ACVRL1, compound concentration 10 uM, read-out: Percent Competition): 83%
- inhibition at 10 µM (HPK1; HPK1, compound concentration 10 uM, read-out: Percent Competition): 67%
- Percent Competition (JNK3; compound concentration 10 uM): 88%
- inhibition at 10 µM (RIPK2; RIPK2, compound concentration 10 uM, read-out: Percent Competition): 97%
- Percent Competition (JNK2; compound concentration 10 uM): 100%
- inhibition at 10 µM (CAMKIγ; CAMK1G, compound concentration 10 uM, read-out: Percent Competition): < 50%
- inhibition at 10 µM (MUSK; MUSK, compound concentration 10 uM, read-out: Percent Competition): 94%
- inhibition at 10 µM (PKAC-beta; PKAC-beta, compound concentration 10 uM, read-out: Percent Competition): 67%
Structure (SMILES): Fc1ccc(-c2c(-c3ccncc3)[nH]c3nccnc23)cc1 [RO1155697-000-005]

- inhibition at 10 µM (STK35; STK35, 10 µM, read-out: % Competition): 79%
- inhibition at 10 µM (IRAK3; IRAK3, 10 µM, read-out: % Competition): 75%
- inhibition at 10 µM (GSK3B; GSK3B, 10 µM, read-out: % Competition): 96%
- inhibition at 10 µM (MRCKB; MRCKB, 10 µM, read-out: % Competition): 98%
- inhibition at 10 µM (ACVRL1; ACVRL1, 10 µM, read-out: % Competition): 83%
- inhibition at 10 µM (HPK1; HPK1, 10 µM, read-out: % Competition): 67%
- % Competition (JNK3): 88%
- inhibition at 10 µM (RIPK2; RIPK2, 10 µM, read-out: % Competition): 97%
- % Competition (JNK2): 100%
- competition (CAMKIγ): < 50%
- inhibition at 10 µM (MUSK; MUSK, 10 µM, read-out: % Competition): 94%
- inhibition at 10 µM (PKAC-beta; PKAC-beta, 10 µM, read-out: % Competition): 67%
Structure (SMILES): Fc1ccc(-c2c(-c3ccncc3)[nH]c3nccnc23)cc1 [Compound 122]

Structure (SMILES): CC(O)CNc1cc(-c2[nH]c3cccnc3c2-c2ccc(F)cc2)ccn1 (stereo not drawn) [Compound 140]
- inhibition at 10 µM (STK35; read-out: % Competition): < 50%
- inhibition at 10 µM (IRAK3; read-out: % Competition): < 50%
- inhibition at 10 µM (GSK3B; read-out: % Competition): < 50%
- inhibition at 10 µM (MRCKB; read-out: % Competition): < 50%
- inhibition at 10 µM (ACVRL1; read-out: % Competition): < 50%
- inhibition at 10 µM (HPK1; read-out: % Competition): < 50%
- % Competition (JNK3): 83%
- inhibition at 10 µM (RIPK2; read-out: % Competition): 94%
- % Competition (JNK2): 100%
- competition (CAMKIγ): < 50%
- inhibition at 10 µM (MUSK; read-out: % Competition): < 50%
- inhibition at 10 µM (PKAC-beta; read-out: % Competition): < 50%
